Literature values in patent publication US20230167505A1, “CIRCULATING TUMOR DNA AS A BIOMARKER FOR LEUKEMIA TREATMENT” (Cardiff Oncology, Inc., priority 2020, published 2023).

Settings: in vivo; cited from earlier work

Question: Which half-life does the source give for `CC[C@@H]1C(=O)N(C)c2cnc(Nc3ccc(C(=O)N[C@H]4CC[C@H](N5CCN(CC6CC6)CC5)CC4)cc3OC)nc2N1C(C)C` [volasertib] here?
Answer: The half-life was ~120 h.
